The supplement of paper PMC11061612

Legend:
Test in all cases: Bliss excess, mean over the matrix (fraction); higher = more synergy
[1] = test system: YT (Other Blood Carcinomas)
Summary of the method: (§1)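 Cell lines grown in DMEM/F12 or RPMI with 10% FBS were plated in 1536-well plates and held 24 hours at 37°C, 5% CO2 before 72 hours of exposure to two-drug dose matrices, with DMSO typically at 0.2%. CellTiter-Glo 2.0 luminescence gave viability, which was converted to inhibition. Vehicle wells were set to 0 and blank wells to 1. Combination Emax is the second-highest inhibition in the matrix, and Bliss excess is the observed combination effect minus the expected EA + EB − EA·EB, where EA and EB are the single-agent effects.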

HCC38 (Breast Carcinoma) = test system: HCC38 (Breast Carcinoma)
Summary of the method: as §1

[2] = test system: NOMO-1 (Acute Myeloid Leukemia)
Summary of the method: as §1

[3] = test system: SNG-M (Endometrial Carcinoma)
Summary of the method: as §1

[4] = test system: WSU-DLCL2 (B-Cell Non-Hodgkin's Lymphoma)
Summary of the method: as §1

Saos-2 (Osteosarcoma) = test system: Saos-2 (Osteosarcoma)
Summary of the method: as §1

CS1 (Chondrosarcoma) = test system: CS1 (Chondrosarcoma)
Summary of the method: as §1

[5] = test system: TC-YIK (Other Solid Carcinomas)
Summary of the method: as §1

[6] = test system: HCT-116 (Colorectal Carcinoma)
Summary of the method: as §1

[7] = test system: SK-UT-1 (Other Solid Carcinomas)
Summary of the method: as §1

[8] = test system: D-283MED (Other Solid Carcinomas)
Summary of the method: as §1

D-392MG (Glioblastoma) = test system: D-392MG (Glioblastoma)
Summary of the method: as §1

[9] = test system: DOK (Oral Cavity Carcinoma)
Summary of the method: as §1

H4 (Low Grade Glioma) = test system: H4 (Low Grade Glioma)
Summary of the method: as §1

Row | Structure (SMILES) | Bliss excess [1] | Bliss excess (HCC38 (Breast Carcinoma)) | Bliss excess [2] | Bliss excess [3] | Bliss excess [4] | Bliss excess (Saos-2 (Osteosarcoma)) | Bliss excess (CS1 (Chondrosarcoma)) | Bliss excess [5] | Bliss excess [6] | Bliss excess [7] | Bliss excess [8] | Bliss excess (D-392MG (Glioblastoma)) | Bliss excess [9] | Bliss excess (H4 (Low Grade Glioma))
1 | C[C@@H]1COCCN1c1cc(C2([S@](C)(=N)=O)CC2)nc(-c2ccnc3[nH]ccc23)n1 [AZD6738] + Nc1ccn([C@@H]2O[C@H](CO)[C@@H](O)C2(F)F)c(=O)n1 [Gemcitabine] (first compound max 10 µM, 7x7, partner max 0.3 µM) | 0.124 | 0.0715 | 0.058 | -0.0277 | 0.0721 | 0.0312 | 0.075 | -0.0046 | 0.0252 | 0.0317 | -0.0179 | -0.0224 | 0.0785 | 0.0184
2 | N#Cc1cnc(Nc2cc(NC[C@H]3CNCCO3)c(C(F)(F)F)cn2)cn1 [SRA737] + C=CCn1c(=O)c2cnc(Nc3ccc(N4CCN(C)CC4)cc3)nc2n1-c1cccc(C(C)(C)O)n1 [AZD1775] (first compound max 10 µM, partner max 1 µM) | 0.0379 | 0.0088 | 0.0706 | -0.0045 | 0.205 | 0.0939 | 0.0399 | 0.0278 | 0.0011 | 0.0497 | 0.0779 | -0.0523 | -0.0139 | 0.0327
3 | C=CCn1c(=O)c2cnc(Nc3ccc(N4CCN(C)CC4)cc3)nc2n1-c1cccc(C(C)(C)O)n1 [AZD1775] + CCc1c2c(nc3ccc(O)cc13)-c1cc3c(c(=O)n1C2)COC(=O)[C@]3(O)CC [SN-38] (first compound max 1 µM, partner max 0.3 µM) | -0.0418 | -0.0765 | -0.0208 | -0.0087 | 0.003 | -0.0514 | -0.0705 | -0.0451 | -0.0302 | -0.032 | -0.0258 | -0.0704 | -0.0096 | 0.015
4 | C[C@@H](Oc1cc(-c2cnn(C3CCNCC3)c2)cnc1N)c1c(Cl)ccc(F)c1Cl [Crizotinib] + CC1=C(C(=CC=C1)Cl)NC(=O)C2=CN=C(S2)NC3=CC(=NC(=N3)C)N4CCN(CC4)CCO [Dasatinib] (first compound max 10 µM, 7x7, partner max 2 µM) | 0.0714 | 0.0255 | -0.025 | 0.0813 | 0.0824 | 0.0807 | 0.112 | -0.0378 | 0.0243 | 0.0539 | 0.0947 | 0.0503 | -0.0008 | 0.0857
5 | O=C(c1cc(Cc2n[nH]c(=O)c3ccccc23)ccc1F)N1CCN(C(=O)C2CC2)CC1 [Olaparib] + CN(CC[C@H](CSC1=CC=CC=C1)NC2=C(C=C(C=C2)S(=O)(=O)NC(=O)C3=CC=C(C=C3)N4CCC(CC4)[C@H](C5=CC=CC=C5C6=CC=C(C=C6)Cl)O)S(=O)(=O)C(F)(F)F)CCO [AZD4320] (first compound max 10 µM, 7x7, partner max 1 µM) | -0.0505 | -0.0541 | 0.034 | -0.014 | 0.0579 | -0.0312 | -0.0342 | 0.0047 | -0.0103 | 0.0299 | 0.0204 | -0.0317 | -0.101 | 0.0106
6 | O=C(c1cc(Cc2n[nH]c(=O)c3ccccc23)ccc1F)N1CCN(C(=O)C2CC2)CC1 [Olaparib] + Cc1c2c(nn1C)CSCc1cc(n(C)n1)CSc1cc(c3ccccc3c1)OCCCc1c(C(=O)O)n(C)c3c-2c(Cl)ccc13 [AZD5991] (first compound max 10 µM, 7x7, partner max 1 µM) | 0.0191 | -0.0457 | -0.0167 | 0.002 | 0.0378 | -0.0087 | -0.0483 | -0.0566 | -0.0086 | -0.0141 | 0.0172 | -0.0661 | -0.0192 | 0.0256
7 | CN(CCO)CC[C@H](CSc1ccccc1)Nc1ccc(S(=O)(=O)NC(=O)c2ccc(N3CCC([C@@H](O)c4ccccc4-c4ccc(Cl)cc4)CC3)cc2)cc1S(=O)(=O)C(F)(F)F [AZD4320] + Nc1ccn([C@@H]2O[C@H](CO)[C@@H](O)C2(F)F)c(=O)n1 [Gemcitabine] (first compound max 1 µM, 7x7, partner max 0.3 µM) | -0.0591 | -0.0171 | 0.0208 | -0.0568 | 0.0032 | 0.121 | 0.0187 | -0.0091 | 0.0111 | 0.0159 | -0.0335 | 0.0921 | 0.0797 | 0.0194
8 | N#Cc1cnc(Nc2cc(NC[C@H]3CNCCO3)c(C(F)(F)F)cn2)cn1 [SRA737] + Nc1ccn([C@@H]2O[C@H](CO)[C@@H](O)C2(F)F)c(=O)n1 [Gemcitabine] (first compound max 10 µM, 7x7, partner max 0.3 µM) | 0.0694 | -0.0054 | -0.0169 | -0.0731 | 0.111 | 0.0276 | 0.0679 | -0.0605 | 0.0063 | 0.0162 | 0.0135 | 0.0579 | 0.0191 | 0.0511
9 | C[C@@H](Nc1cc(F)cc(F)c1)c1cc(C(=O)N(C)C)cc2c(=O)cc(N3CCOCC3)oc12 [AZD8186] + CC(=O)c1c(C)c2cnc(Nc3ccc(N4CCNCC4)cn3)nc2n(C2CCCC2)c1=O [Palbociclib] (first compound max 10 µM, 7x7, partner max 10 µM) | 0.0407 | -0.0466 | 0.0983 | -0.0361 | 0.0762 | -0.0181 | 0.0326 | 0.036 | 0.0488 | 0.008 | 0.113 | -0.0827 | 0.0079 | 0.122
10 | N#Cc1cnc(Nc2cc(NC[C@H]3CNCCO3)c(C(F)(F)F)cn2)cn1 [SRA737] + CCc1c2c(nc3ccc(O)cc13)-c1cc3c(c(=O)n1C2)COC(=O)[C@]3(O)CC [SN-38] (first compound max 10 µM, 7x7, partner max 0.3 µM) | -0.0677 | -0.049 | -0.039 | -0.111 | 0.0055 | -0.0303 | -0.0579 | -0.0041 | -0.0306 | -0.0033 | -0.0395 | -0.0555 | -0.0531 | -0.0029
11 | C=CCn1c(=O)c2cnc(Nc3ccc(N4CCN(C)CC4)cc3)nc2n1-c1cccc(C(C)(C)O)n1 [AZD1775] + Nc1ccn([C@@H]2O[C@H](CO)[C@@H](O)C2(F)F)c(=O)n1 [Gemcitabine] (first compound max 1 µM, partner max 0.3 µM) | 0.0337 | 0.0214 | 0.0485 | -0.0314 | 0.0694 | -0.0728 | -0.0007 | -0.0642 | -0.0342 | -0.0194 | 0.0097 | 0.013 | -0.0216 | -0.0148
12 | C[C@@H]1COCCN1c1cc(C2([S@](C)(=N)=O)CC2)nc(-c2ccnc3[nH]ccc23)n1 [AZD6738] + C1CC(C1)(C(=O)[O-])C(=O)[O-].N.N.[Pt+2] [Carboplatin] (first compound max 10 µM, 7x7, partner max 10 µM) | -0.0397 | -0.0516 | -0.0037 | -0.0448 | 0.0217 | -0.0302 | -0.0674 | -0.0631 | 0.0014 | -0.0214 |  | -0.0311 | 0.0086 | 0.0025
13 | CN(CCO)CC[C@H](CSc1ccccc1)Nc1ccc(S(=O)(=O)NC(=O)c2ccc(N3CCC([C@@H](O)c4ccccc4-c4ccc(Cl)cc4)CC3)cc2)cc1S(=O)(=O)C(F)(F)F [AZD4320] + CS(=O)(=O)CCNCc1ccc(-c2ccc3ncnc(Nc4ccc(OCc5cccc(F)c5)c(Cl)c4)c3c2)o1 [Lapatinib] (first compound max 1 µM, 7x7, partner max 10 µM) | 0.0643 | 0.0173 | 0.0709 | -0.0091 | 0.203 | 0.083 | 0.0095 | 0.0065 | 0.0085 | 0.006 | 0.013 | -0.0269 | 0.0402 | -0.0113
14 | CC1(C)CCC(CN2CCN(c3ccc(C(=O)NS(=O)(=O)c4ccc(NCC5CCOCC5)c([N+](=O)[O-])c4)c(Oc4cnc5[nH]ccc5c4)c3)CC2)=C(c2ccc(Cl)cc2)C1 [Venetoclax] + CS(=O)(=O)CCNCc1ccc(-c2ccc3ncnc(Nc4ccc(OCc5cccc(F)c5)c(Cl)c4)c3c2)o1 [Lapatinib] (first compound max 1 µM, 7x7, partner max 10 µM) | 0.0123 | -0.0355 | 0.0105 | -0.0166 | 0.0902 | -0.0131 | -0.0662 | -0.0035 | -0.0369 | -0.0286 | -0.0416 | -0.0732 | -0.0301 | -0.0188
15 | Cc1c2c(nn1C)CSCc1cc(n(C)n1)CSc1cc(c3ccccc3c1)OCCCc1c(C(=O)O)n(C)c3c-2c(Cl)ccc13 [AZD5991] + CC(=O)O[C@H]1C(=O)[C@@]2(C)[C@H]([C@H](OC(=O)c3ccccc3)[C@]3(O)C[C@H](OC(=O)[C@H](O)[C@@H](NC(=O)c4ccccc4)c4ccccc4)C(C)=C1C3(C)C)[C@]1(OC(C)=O)CO[C@@H]1C[C@@H]2O [Paclitaxel] (first compound max 1 µM, 7x7, partner max 3 µM) | -0.0159 | -0.0632 | -0.0215 | 0.0374 | -0.0151 | 0.0358 | -0.012 | -0.0709 | -0.0211 | 0.008 | -0.0552 | 0.046 | -0.0004 | 0.0003
16 | O=C(c1cc(Cc2n[nH]c(=O)c3ccccc23)ccc1F)N1CCN(C(=O)C2CC2)CC1 [Olaparib] + CC1(C)CCC(CN2CCN(c3ccc(C(=O)NS(=O)(=O)c4ccc(NCC5CCOCC5)c([N+](=O)[O-])c4)c(Oc4cnc5[nH]ccc5c4)c3)CC2)=C(c2ccc(Cl)cc2)C1 [Venetoclax] (first compound max 10 µM, 7x7, partner max 1 µM) | 0.0335 | -0.0247 | 0.0666 | -0.0347 | 0.0235 | -0.0289 | -0.0621 | -0.0304 | -0.0156 | 0.0047 | 0.0445 | -0.0886 | -0.0426 | -0.011
17 | Cc1c2c(nn1C)CSCc1cc(n(C)n1)CSc1cc(c3ccccc3c1)OCCCc1c(C(=O)O)n(C)c3c-2c(Cl)ccc13 [AZD5991] + CS(=O)(=O)CCNCc1ccc(-c2ccc3ncnc(Nc4ccc(OCc5cccc(F)c5)c(Cl)c4)c3c2)o1 [Lapatinib] (first compound max 1 µM, 7x7, partner max 10 µM) | 0.0331 | -0.0638 | -0.0873 | -0.0254 | 0.0601 | -0.0071 | -0.0458 | -0.0418 | -0.0365 | 0.032 |  | -0.0727 | 0.111 | 0.0407
